Reference: ChEMBL document CHEMBL3044887, “The antifungal activity of widdrol and its biotransformation by Colletotrichum gloeosporioides (penz.) Penz. & Sacc. and Botrytis cinerea Pers.: Fr” (2006)
The source made the active and inactive calls. The calls are words filed in the database; no cut-off is given here.

Key:
Botrytis cinerea [1] = test: Antifungal activity against Botryotinia fuckeliana 2100 assessed as inhibition of mycelial growth at 100 ppm measured after 6 days; format: functional
Botrytis cinerea [2] = test: Antifungal activity against Botryotinia fuckeliana 2100 assessed as inhibition of mycelial growth at 200 ppm measured after 6 days; format: functional; details: Botrytis cinerea, 2100, 144 h; read-out: GI
[3] = test system: Colletotrichum gloeosporioides; test: Antifungal activity against Colletotrichum gloeosporioides 20122 assessed as inhibition of mycelial growth at => 100 ppm measured after 24 to 144 hr; format: functional, organism-based

| Compound | growth inhibition (GI) (Botrytis cinerea [1]) | also measured |
| --- | --- | --- |
| CC1(C)C2=CC[C@@](C)(O)CC[C@]2(C)CC[C@@H]1O | inactive |  |
| CC1(C)C(=O)CC[C@@]2(C)CC[C@](C)(O)CC=C12 | inactive |  |
| CC1(C)CC[C@@H]2O[C@]13[C@H](O)C[C@@](C)(O)CC[C@]23C | inactive |  |
| CC1(C)C2=CC[C@@](C)(O)CC[C@]2(C)CC[C@H]1O | inactive |  |
| CC1(C)CCC[C@@]2(C)CC[C@](C)(O)CC=C12 [WIDDROL] |  | inhibition of growth at 200 ppm (Botrytis cinerea [2]): 70.7%; inhibition of growth at 100 ppm (Botrytis cinerea [1]; Botrytis cinerea, 2100, 144 h, read-out: GI): 60%; growth inhibition (GI) [3]: inactive |
| C[C@@]1(O)CC=C2[C@@](C)(CCC[C@@]2(C)CO)CC1 | inactive |  |
